{"source": "paper PMC9951290", "about": "“Comprehensive Structure–Activity Relationship Studies of Cepafungin Enabled by Biocatalytic C–H Oxidations” (ACS Central Science, 2023)", "key": {"proteasome subunit β2": {"molecular_target": "T1, proteasome subunit β2 (Homo sapiens, UniProt Q99436)", "T1 sequence (Q99436 44-277)": "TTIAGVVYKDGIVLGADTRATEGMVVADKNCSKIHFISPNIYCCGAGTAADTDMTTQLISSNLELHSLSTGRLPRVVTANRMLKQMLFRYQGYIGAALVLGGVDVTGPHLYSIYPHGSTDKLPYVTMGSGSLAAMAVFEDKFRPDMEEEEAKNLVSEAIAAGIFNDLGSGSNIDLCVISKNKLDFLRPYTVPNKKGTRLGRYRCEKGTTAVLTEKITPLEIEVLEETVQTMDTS", "experiment": "In situ β2 proteasome activity assay (Ac-RLR-AMC) in RPMI 8226 cells", "type": "cell-based", "settings": "6 h, n = 3, Figure 4D", "protocol": "Cellular assays were performed on human multiple myeloma RPMI 8226 cells (Figure 4). First, relative inhibition of proteasome subunits β5 and β2 for all analogues and the natural product was measured at 30 nM compound concentration. Following incubation of the compounds in cell culture for 6 h, cells were lysed, and fluorogenic subunit-specific peptide substrates Suc-LLVY-AMC (β5) or Ac-RLR-AMC (β2) were incubated with the lysates; fluorescence readings provided relative proteasome activity levels in comparison with DMSO (Figure 4A). Next, cytotoxicity screening was performed at 30 and 100 nM concentrations for sufficient coverage of dynamic range (Figure 4B). […] Therefore, the improved cytotoxicity of phenyl cepafungin 50 likely results from a more pronounced loss of β5 function in RPMI 8226 cells. This drastic increase in proteasome inhibition may be due to π-stacking of the lipid tail phenyl ring with the β6 subunit residues Tyr106 and/or Tyr5. […]\nMammalian cells were maintained in RPMI-1640 media. […] Cells were lysed by needle sonication to obtain cell lysates and protein concentration was determined using the […]\nfluorescence was read at A360ex/A460em. […]\nin DMSO) or DMSO and cultured for 48 hours. Toxicity was determined using the WST-1 assay (Roche) according to the protocol of the manufacturer. […]"}, "[1]": {"tested_on": "proteasome subunits β2/2i, β5/5i, β1i, β1", "settings": "in-gel labeling, cited from earlier work"}, "RPMI 8226 cells [2]": {"tested_on": "RPMI 8226 cells", "experiment": "Cytotoxicity measurement (WST-1), RPMI 8226", "type": "cell-based, human", "settings": "Homo sapiens; RPMI 8226, 48 hours, WST-1, n = 3; read-out: Cytotoxicity EC50 (cell viability)", "protocol": "Cellular assays were performed on human multiple myeloma RPMI 8226 cells (Figure 4). First, relative inhibition of proteasome subunits β5 and β2 for all analogues and the natural product was measured at 30 nM compound concentration. Following incubation of the compounds in cell culture for 6 h, cells were lysed, and fluorogenic subunit-specific peptide substrates Suc-LLVY-AMC (β5) or Ac-RLR-AMC (β2) were incubated with the lysates; fluorescence readings provided relative proteasome activity levels in comparison with DMSO (Figure 4A). Next, cytotoxicity screening was performed at 30 and 100 nM concentrations for sufficient coverage of dynamic range (Figure 4B). […] Therefore, the improved cytotoxicity of phenyl cepafungin 50 likely results from a more pronounced loss of β5 function in RPMI 8226 cells. This drastic increase in proteasome inhibition may be due to π-stacking of the lipid tail phenyl ring with the β6 subunit residues Tyr106 and/or Tyr5. The β2 subunit-bound natural product has residues Tyr102 and Phe103 on the adjacent β3 subunit oriented further away from the terminal lipid methyl groups, and presumably would not facilitate π-stacking to the extent possible at the adjacent β6 subunit (see Figure 3 and Figure S4). […] These combined modifications were made in hopes that the effects of both substitutions would be additive. […] The presence of a Thr residue next to the cepafungin macrocycle appears to be favored over the ethyl side chain of desoxy-Thr analogue 44 as indicated by cytotoxicity and hydrogen-bonding seen in the cepafungin-bound crystal structure (Figures 3 and 4B).\nAMC (β5) or Ac-RLR-AMC (β2). […]\nCytotoxicity Measurements\nin DMSO) or DMSO and cultured for 48 hours. Toxicity was determined using the WST-1 assay\n(Roche) according to the protocol of the manufacturer. (n = 3)\nFigure S1. […]"}, "β5-subunit": {"tested_on": "β5-subunit", "settings": "purified yeast proteasome; cited from earlier work"}, "RPMI 8226 cells [3]": {"tested_on": "RPMI 8226 cells", "settings": "∼3700 proteins quantified, 19 in common; cited from earlier work"}}}
{"smiles": "CC(C)CCCCCC=CC=CC(=O)NC(C(=O)NC1CC(O)CCNC(=O)C=CC(C)NC1=O)C(C)O", "note": "(stereo not drawn) [compound 1, cepafungin I]", "values": [{"measurement": "IC50", "setting": "proteasome subunit β2", "value": 43, "unit": "nM"}, {"measurement": "engagement of β1", "setting": "[1]; RPMI 8226, even at high concentrations", "value": "very little engagement"}, {"measurement": "competition for subunits β2/2i, β5/5i and β1i", "setting": "[1]; RPMI 8226", "value": "low-nanomolar concentrations"}, {"measurement": "EC50", "setting": "RPMI 8226 cells [2]", "value": 14, "unit": "nM"}, {"measurement": "fold improvement of β5-subunit inhibition compared to glidobactin A (2)", "setting": "β5-subunit", "value": "ca. 5 fold"}, {"measurement": "number of proteins upregulated compared to DMSO control", "setting": "RPMI 8226 cells [3]", "value": 88, "unit": "proteins"}]}
